Measured values from ChEMBL document CHEMBL1201861, “Genomics of Drug Sensitity in Cancer screening data, Wellcome Trust Sanger Institute”.

How the values were obtained:
Assay type in all cases: functional, cell-based
[1] = tested on: COR-L105; test: cells; conditions: Homo sapiens
Description: SANGER: Inhibition of human COR-L105 cell growth in a cell viability assay.

[2] = tested on: CP50-MEL-B; test: cells; conditions: Homo sapiens;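 note: growth inhibition of the human cell line, measured with a cell viability read-out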
Description: SANGER: Inhibition of human CP50-MEL-B cell growth in a cell viability assay.

[3] = tested on: DBTRG-05MG; test: cells; conditions: Homo sapiens;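 note: cell viability assay measuring growth inhibition of human DBTRG-05MG cells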
Description: SANGER: Inhibition of human DBTRG-05MG cell growth in a cell viability assay.

[4] = tested on: DMS-273; test: cells; conditions: Homo sapiens
Description: SANGER: Inhibition of human DMS-273 cell growth in a cell viability assay.

[5] = tested on: DOK; test: cells; conditions: Homo sapiens;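 note: cell viability assay read-out, values reflect inhibition of cell growth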
Description: SANGER: Inhibition of human DOK cell growth in a cell viability assay.

[6] = tested on: EHEB; test: cells; conditions: Homo sapiens;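 note: growth inhibition of human EHEB cells, read out with a cell viability assay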
Description: SANGER: Inhibition of human EHEB cell growth in a cell viability assay.

[7] = tested on: FTC-133; test: cells; conditions: Homo sapiens
[8] = tested on: G-361; test: cells; conditions: Homo sapiens
[9] = tested on: HCC1395; test: cells; conditions: Homo sapiens;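 note: growth inhibition of HCC1395 cells, read out by a cell viability assay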
Description: SANGER: Inhibition of human HCC1395 cell growth in a cell viability assay.

[10] = tested on: Hs-578T; test: cells; conditions: Homo sapiens
Description: SANGER: Inhibition of human Hs-578-T cell growth in a cell viability assay.

[11] = tested on: KYSE-140; test: cells; conditions: Homo sapiens;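 note: cell viability assay measuring growth inhibition in human KYSE-140 cells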
Description: SANGER: Inhibition of human KYSE-140 cell growth in a cell viability assay.

[12] = tested on: LN-405; test: cells; conditions: Homo sapiens
Description: SANGER: Inhibition of human LN-405 cell growth in a cell viability assay.

[13] = tested on: LU-99A; test: cells; conditions: Homo sapiens;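 note: growth inhibition of LU-99A cells, read out with a cell viability assay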
Description: SANGER: Inhibition of human LU-99A cell growth in a cell viability assay.

[14] = tested on: MDA-MB-453; test: cells; conditions: Homo sapiens
Description: SANGER: Inhibition of human MDA-MB-453 cell growth in a cell viability assay.

[15] = tested on: MHH-CALL-2; test: cells; conditions: Homo sapiens;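 note: growth inhibition of the cell line, read out in a cell viability assay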
Description: SANGER: Inhibition of human MHH-CALL-2 cell growth in a cell viability assay.

[16] = tested on: MHH-ES-1; test: cells; conditions: Homo sapiens
Description: SANGER: Inhibition of human MHH-ES-1 cell growth in a cell viability assay.

[17] = tested on: MKN-28; test: cells; conditions: Homo sapiens;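 note: cell viability assay read-out, IC50 reflects suppression of growth of human MKN-28 cells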
Description: SANGER: Inhibition of human MKN28 cell growth in a cell viability assay.

[18] = tested on: MKN-7; test: cells; conditions: Homo sapiens;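 note: growth inhibition of MKN-7 cells, read out with a cell viability assay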
Description: SANGER: Inhibition of human MKN7 cell growth in a cell viability assay.

[19] = tested on: MRK-nu-1; test: cells; conditions: Homo sapiens;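 note: cell viability assay measuring growth suppression of human MRK-nu-1 cells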
Description: SANGER: Inhibition of human MRK-nu-1 cell growth in a cell viability assay.

[20] = tested on: NCCIT; test: SANGER: Inhibition of human NCCIT cell growth in a cell viability assay.
[21] = tested on: NCI-H1436; test: cells; conditions: Homo sapiens;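 note: growth suppression of human NCI-H1436 cells, determined with a cell viability readout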
Description: SANGER: Inhibition of human NCI-H1436 cell growth in a cell viability assay.

[22] = tested on: NCI-H1573; test: cells; conditions: Homo sapiens;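 note: growth inhibition of NCI-H1573 cells, read out with a cell viability assay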
Description: SANGER: Inhibition of human NCI-H1573 cell growth in a cell viability assay.

[23] = tested on: NCI-H1651; test: cells; conditions: Homo sapiens;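 note: Read-out is a cell viability assay, with IC50 expressing inhibition of NCI-H1651 cell growth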
Description: SANGER: Inhibition of human NCI-H1651 cell growth in a cell viability assay.

[24] = tested on: NCI-H1694; test: cells; conditions: Homo sapiens;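 note: cell viability assay measuring inhibition of growth in human NCI-H1694 cells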
Description: SANGER: Inhibition of human NCI-H1694 cell growth in a cell viability assay.

[25] = tested on: NCI-H187; test: cells; conditions: Homo sapiens;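 note: growth inhibition of NCI-H187 cells, read out as cell viability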
Description: SANGER: Inhibition of human NCI-H187 cell growth in a cell viability assay.

[26] = tested on: NCI-H1993; test: cells; conditions: Homo sapiens;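 note: growth inhibition of the cancer cell line, assessed with a cell viability assay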
Description: SANGER: Inhibition of human NCI-H1993 cell growth in a cell viability assay.

[27] = tested on: NCI-H2030; test: cells; conditions: Homo sapiens;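 note: growth inhibition of human NCI-H2030 cells, read out by a cell viability assay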
Description: SANGER: Inhibition of human NCI-H2030 cell growth in a cell viability assay.

[28] = tested on: NCI-H2342; test: cells; conditions: Homo sapiens;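 note: growth inhibition of the cancer cell line, determined with a cell viability assay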
Description: SANGER: Inhibition of human NCI-H2342 cell growth in a cell viability assay.

[29] = tested on: NCI-H520; test: cells; conditions: Homo sapiens;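 note: growth inhibition of NCI-H520 cells, measured by a cell viability assay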
Description: SANGER: Inhibition of human NCI-H520 cell growth in a cell viability assay.

[30] = tested on: NCI-H524; test: cells; conditions: Homo sapiens;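 note: growth inhibition of human NCI-H524 cells, read out through a cell viability assay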
Description: SANGER: Inhibition of human NCI-H524 cell growth in a cell viability assay.

[31] = tested on: NCI-H661; test: cells; conditions: Homo sapiens;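 note: cell viability assay read-out, IC50 being the concentration that inhibits growth of the cells by half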
Description: SANGER: Inhibition of human NCI-H661 cell growth in a cell viability assay.

[32] = tested on: NCI-H716; test: cells; conditions: Homo sapiens;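 note: growth inhibition of human NCI-H716 cells, measured by a cell viability assay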
Description: SANGER: Inhibition of human NCI-H716 cell growth in a cell viability assay.

[33] = tested on: NUGC-3; test: cells; conditions: Homo sapiens;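 note: growth inhibition of human NUGC-3 cells, read out with a cell viability assay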
Description: SANGER: Inhibition of human NUGC-3 cell growth in a cell viability assay.

[34] = tested on: OE33; test: cells; conditions: Homo sapiens;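 note: growth inhibition of human OE33 cells, measured by a cell viability assay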
Description: SANGER: Inhibition of human OE33 cell growth in a cell viability assay.

[35] = tested on: Panc1005; test: cells; conditions: Homo sapiens;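 note: growth inhibition of human PANC-10-05 cells, measured by a cell viability assay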
Description: SANGER: Inhibition of human PANC-10-05 cell growth in a cell viability assay.

[36] = tested on: REH; test: cells; conditions: Homo sapiens;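 note: growth inhibition of REH cells determined with a cell viability read-out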
Description: SANGER: Inhibition of human REH cell growth in a cell viability assay.

[37] = tested on: RL; test: cells; conditions: Homo sapiens
Description: SANGER: Inhibition of human RL cell growth in a cell viability assay.

[38] = tested on: Raji; test: cells; conditions: Homo sapiens;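 note: cell viability assay measuring inhibition of Raji cell growth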
Description: SANGER: Inhibition of human Raji cell growth in a cell viability assay.

[39] = tested on: SBC-5; test: cells; conditions: Homo sapiens;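 note: cell viability assay read-out, IC50 is the concentration that inhibits growth of the cells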
Description: SANGER: Inhibition of human SBC-5 cell growth in a cell viability assay.

[40] = tested on: SK-MEL-28; test: cells; conditions: Homo sapiens;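 note: growth inhibition of human SK-MEL-28 cells, read out with a cell viability assay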
Description: SANGER: Inhibition of human SK-MEL-28 cell growth in a cell viability assay.

[41] = tested on: SK-MM-2; test: cells; conditions: Homo sapiens;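 note: growth inhibition of human SK-MM-2 cells, read out with a cell viability assay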
Description: SANGER: Inhibition of human SK-MM-2 cell growth in a cell viability assay.

[42] = tested on: SKG-IIIa; test: cells; conditions: Homo sapiens;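 note: cell growth inhibition, read out with a cell viability assay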
Description: SANGER: Inhibition of human SKG-IIIa cell growth in a cell viability assay.

[43] = tested on: SU-DHL-1; test: SANGER: Inhibition of human SU-DHL-1 cell growth in a cell viability assay.
[44] = tested on: SUP-T1; test: cells; conditions: Homo sapiens;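 note: growth inhibition of human SUP-T1 cells, read out as cell viability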
Description: SANGER: Inhibition of human SUP-T1 cell growth in a cell viability assay.

[45] = tested on: SW626; test: cells; conditions: Homo sapiens;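 note: growth inhibition of SW626 cells, measured with a cell viability assay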
Description: SANGER: Inhibition of human SW626 cell growth in a cell viability assay.

[46] = tested on: SW837; test: cells; conditions: Homo sapiens;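 note: growth inhibition of SW837 cells, determined with a cell viability assay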
Description: SANGER: Inhibition of human SW837 cell growth in a cell viability assay.

[47] = tested on: T-24; test: cells; conditions: Homo sapiens;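 note: growth inhibition of T-24 cells, read out with a cell viability assay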
Description: SANGER: Inhibition of human T-24 cell growth in a cell viability assay.

[48] = tested on: T98G; test: cells; conditions: Homo sapiens;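 note: growth inhibition of T98G cells, read out by a cell viability assay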
Description: SANGER: Inhibition of human T98G cell growth in a cell viability assay.

[49] = tested on: 786-0; test: cells; conditions: Homo sapiens
Description: SANGER: Inhibition of human 786-0 cell growth in a cell viability assay.

[50] = tested on: 8505C; test: cells; conditions: Homo sapiens
Description: SANGER: Inhibition of human 8505C cell growth in a cell viability assay.

[51] = tested on: A-375; test: cells; conditions: Homo sapiens;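 note: growth inhibition of A375 cells, read out with a cell viability assay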
Description: SANGER: Inhibition of human A375 cell growth in a cell viability assay.

[52] = tested on: A-427; test: cells; conditions: Homo sapiens;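 note: growth inhibition of human A-427 cells, read out by a cell viability assay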
Description: SANGER: Inhibition of human A427 cell growth in a cell viability assay.

[53] = tested on: A-431; test: cells; conditions: Homo sapiens;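 note: growth inhibition of A-431 cells, determined with a cell viability read-out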
Description: SANGER: Inhibition of human A431 cell growth in a cell viability assay.

[54] = tested on: A673; test: cells; conditions: Homo sapiens;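 note: growth inhibition of human A673 cells, read out through a cell viability assay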
Description: SANGER: Inhibition of human A673 cell growth in a cell viability assay.

[55] = tested on: BC-3; test: cells; conditions: Homo sapiens;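 note: cell viability assay measuring growth inhibition of human BC-3 cells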
Description: SANGER: Inhibition of human BC-3 cell growth in a cell viability assay.

[56] = tested on: BHT-101; test: cells; conditions: Homo sapiens
Description: SANGER: Inhibition of human BHT-101 cell growth in a cell viability assay.

[57] = tested on: BHY; test: cells; conditions: Homo sapiens;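 note: cell growth inhibition read out by a viability assay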
Description: SANGER: Inhibition of human BHY cell growth in a cell viability assay.

[58] = tested on: BL-41; test: cells; conditions: Homo sapiens;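 note: growth inhibition of human BL-41 cells, read out with a cell viability assay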
Description: SANGER: Inhibition of human BL-41 cell growth in a cell viability assay.

[59] = tested on: CAL-33; test: cells; conditions: Homo sapiens;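 note: growth inhibition of CAL-33 cells, read out with a cell viability assay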
Description: SANGER: Inhibition of human CAL-33 cell growth in a cell viability assay.

[60] = tested on: CAL-54; test: cells; conditions: Homo sapiens;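 note: growth inhibition of CAL-54 cells, read out by a viability measurement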
Description: SANGER: Inhibition of human CAL-54 cell growth in a cell viability assay.

[61] = tested on: TUR; test: cells; conditions: Homo sapiens;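 note: growth inhibition of human TUR cells, read out with a cell viability assay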
Description: SANGER: Inhibition of human TUR cell growth in a cell viability assay.

[62] = tested on: WM-115; test: cells; conditions: Homo sapiens
Description: SANGER: Inhibition of human WM-115 cell growth in a cell viability assay.

[63] = tested on: YT; test: cells; conditions: Homo sapiens
Description: SANGER: Inhibition of human YT cell growth in a cell viability assay.

[64] = tested on: CHL-1; test: cells; conditions: Homo sapiens;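 note: cell growth inhibition, read out with a cell viability assay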
Description: SANGER: Inhibition of human CHL-1 cell growth in a cell viability assay.

[65] = tested on: CHP-126; test: cells; conditions: Homo sapiens
Description: SANGER: Inhibition of human CHP-126 cell growth in a cell viability assay.

N#C/C(=C1/Nc2ccccc2S1)c1ccnc(NCCc2cccnc2)n1
IC50 [1]: 1.77 µM
IC50 [2]: > 8 µM
IC50 [3]: > 8 µM
IC50 [4]: 1.49 µM
IC50 [5]: > 8 µM
IC50 [6]: > 8 µM
IC50 [7]: > 8 µM
IC50 [8]: > 8 µM
IC50 [9]: > 8 µM
IC50 [10]: > 8 µM
IC50 [11]: 1.41 µM
IC50 [12]: > 8 µM
IC50 [13]: > 8 µM
IC50 [14]: > 8 µM
IC50 [15]: > 8 µM
IC50 [16]: > 8 µM
IC50 [17]: > 8 µM
IC50 [18]: > 8 µM
IC50 [19]: > 8 µM
IC50 [20]: > 8 µM
IC50 [21]: > 8 µM
IC50 [22]: > 8 µM
IC50 [23]: > 8 µM
IC50 [24]: > 8 µM
IC50 [25]: > 8 µM
IC50 [26]: > 8 µM
IC50 [27]: > 8 µM
IC50 [28]: 4.52 µM
IC50 [29]: > 8 µM
IC50 [30]: > 8 µM
IC50 [31]: > 8 µM
IC50 [32]: > 8 µM
IC50 [33]: > 8 µM
IC50 [34]: > 8 µM
IC50 [35]: > 8 µM
IC50 [36]: > 8 µM
IC50 [37]: > 8 µM
IC50 [38]: > 8 µM
IC50 [39]: 6.89 µM
IC50 [40]: > 8 µM
IC50 [41]: > 8 µM
IC50 [42]: > 8 µM
IC50 [43]: > 8 µM
IC50 [44]: > 8 µM
IC50 [45]: 5.87 µM
IC50 [46]: 5.24 µM
IC50 [47]: > 8 µM
IC50 [48]: > 8 µM
IC50 [49]: 3.08 µM
IC50 [50]: 2.9 µM
IC50 [51]: > 8 µM
IC50 [52]: > 8 µM
IC50 [53]: > 8 µM
IC50 [54]: > 8 µM
IC50 [55]: 7.46 µM
IC50 [56]: > 8 µM
IC50 [57]: > 8 µM
IC50 [58]: 7.64 µM
IC50 [59]: > 8 µM
IC50 [60]: > 8 µM
IC50 [61]: > 8 µM
IC50 [62]: > 8 µM
IC50 [63]: > 8 µM
IC50 [64]: 6.1 µM
IC50 [65]: > 8 µM

C/C(O)=C(\C#N)C(=O)Nc1cc(Br)ccc1Br
IC50 [1]: > 16 µM
IC50 [2]: > 16 µM
IC50 [3]: > 16 µM
IC50 [4]: > 16 µM
IC50 [5]: > 16 µM
IC50 [6]: > 16 µM
IC50 [7]: > 16 µM
IC50 [8]: > 16 µM
IC50 [9]: > 16 µM
IC50 [10]: > 16 µM
IC50 [11]: > 16 µM
IC50 [12]: > 16 µM
IC50 [13]: > 16 µM
IC50 [14]: > 16 µM
IC50 [15]: > 16 µM
IC50 [16]: > 16 µM
IC50 [17]: > 16 µM
IC50 [18]: > 16 µM
IC50 [19]: > 16 µM
IC50 [20]: > 16 µM
IC50 [21]: > 16 µM
IC50 [22]: > 16 µM
IC50 [23]: > 16 µM
IC50 [24]: > 16 µM
IC50 [25]: > 16 µM
IC50 [26]: > 16 µM
IC50 [27]: > 16 µM
IC50 [28]: > 16 µM
IC50 [29]: > 16 µM
IC50 [30]: > 16 µM
IC50 [31]: > 16 µM
IC50 [32]: > 16 µM
IC50 [33]: > 16 µM
IC50 [34]: > 16 µM
IC50 [35]: > 16 µM
IC50 [36]: > 16 µM
IC50 [37]: > 16 µM
IC50 [38]: > 16 µM
IC50 [39]: > 16 µM
IC50 [40]: > 16 µM
IC50 [41]: > 16 µM
IC50 [42]: > 16 µM
IC50 [43]: > 16 µM
IC50 [44]: > 16 µM
IC50 [45]: > 16 µM
IC50 [46]: > 16 µM
IC50 [47]: > 16 µM
IC50 [48]: > 16 µM
IC50 [49]: > 16 µM
IC50 [50]: > 16 µM
IC50 [51]: > 16 µM
IC50 [52]: > 16 µM
IC50 [53]: > 16 µM
IC50 [54]: > 16 µM
IC50 [55]: > 16 µM
IC50 [56]: > 16 µM
IC50 [57]: > 16 µM
IC50 [58]: > 16 µM
IC50 [59]: > 16 µM
IC50 [60]: > 16 µM
IC50 [61]: > 16 µM
IC50 [62]: > 16 µM
IC50 [63]: > 16 µM
IC50 [64]: > 16 µM
IC50 [65]: > 16 µM
